Measurements reported in patent publication US20240083903A1, “ARYL ETHER COMPOUNDS AS TEAD MODULATORS” (Merck Sharp& Dohme LLC, priority 2021, published 2024).

Tested on: TEAD Reporter-MCF7 cell line
Experiment: YAP/TEAD cellular activity assay: inhibition of TEAD-Luc activity in TEAD Reporter-MCF7 cell line
Type: cell-based, human
Conditions: Homo sapiens, MCF7, 24 h, TEAD Reporter-MCF7 cells, 24 hours incubation with compound, luciferase readout
Procedure: YAP/TEAD Cellular Activity Assay
Quantitation of Compound Potency on the Inhibition of TEAD-Luc Activity in TEAD Reporter-MCF7 Cell Line.
The TEAD Reporter-MCF7 cell line containing the firefly luciferase gene under the control of TEAD responsive elements stably integrated into the human breast cancer cell line was purchased from BPS Bioscience (Cat #60618). The cells were cultured with complete culture medium ([…], 1 mM sodium pyruvate, 10% fetal bovine serum, 10 ng/mL insulin and 400 ug/mL G418 sulfate) prior to the assay. For the assay, the cells were harvested, resuspended in the complete culture medium without G418, and seeded into white solid bottom 384-well cell culture microplates in 25 uL with 10,000 cells per well. The plates were incubated at 37° C. in a CO2 incubator for 20-24 hours and the compounds were then transferred from Echo LDV plates directly into the 384-well white tissue culture plates with an Echo. The plates were incubated at 37° C. in a CO2 incubator for 24 hours and equal volume of ONE-Glo™ EX Luciferase reagent (Promega, Cat #E8150) was added. After mixing on a shaker at room temperature for 10 minutes, the luciferase activity was measured with an Envision. The percentage inhibition and EC50 values of compounds were calculated with Spotfire.
Required Materials • 1. TEAD reporter-MCF-7 Cells (BPS Bioscience, #60618) • 2. Complete Cell Culture Medium (without selection antibiotics) • EMEM 89% (ATCC, #30-2003) • FBS 10% (Hyclone, #SH30088.03) • 1% Non essential amino acids (Gibco, • 1 mM sodium pyruvate (Gibco, • Pen/Strep, 1% (Gibco, #15140-122) • 10 ng/mL insulin (Sigma, #10516) • 3. Complete Cell Culture Medium (with selection antibiotics) • EMEM 89% (ATCC, #30-2003) • F1% Non essential amino acids (Gibco, • 1 mM sodium pyruvate (Gibco, • BS 10% (Hyclone, #SH30088.03) • 10 ng/mL insulin (Sigma, #10516) • 400 ug/mL G418 sulfate (Agilent, #200049-21) • 4. Miscellaneous tissue culture equipment and reagents. • 5. White solid 384-well tissue culture plate (Greiner, Cat #781080) • 6. One Glo EX luciferase assay system (Promega, #E8150)
The following table tabulates the biological data disclosed for the current invention. The biological data was collected using the methodology described above. For each compound, TEAD-Luc EC50 values are listed in nanomolar (nM) concentration units.

Compound | EC50 [nM]
CNS(=O)(=O)c1ccc(Oc2ccc(C(F)(F)F)cc2)c(-c2cnc3ccc(N)cn23)c1 [1-24, 3-(6-aminoimidazo[1,2-a]pyridin-3-yl)-N-methyl-4-[4-(trifluoromethyl)phenoxy]benzene-1-sulfonamide] | 5390
CNS(=O)(=O)c1ccc(Oc2ccc(C(F)(F)F)cc2)c(-c2cnc3cc(C)ccn23)c1 [1-25, N-methyl-3-(7-methylimidazo[1,2-a]pyridin-3-yl)-4-[4-(trifluoromethyl)phenoxy]benzene-1-sulfonamide] | 3270
CNS(=O)(=O)c1ccc(Oc2ccc(C(F)(F)F)cc2)c(-c2cn3ccccc3n2)c1 [1-27, 3-(imidazo[1,2-a]pyridin-2-yl)-N-methyl-4-[4-(trifluoromethyl)phenoxy]benzene-1-sulfonamide] | 28.4
CNS(=O)(=O)c1ccc(Oc2ccc(C(F)(F)F)cc2)c(-c2nc3ccccc3s2)c1 [1-28, 3-(1,3-benzothiazol-2-yl)-N-methyl-4-[4-(trifluoromethyl)phenoxy]benzene-1-sulfonamide] | 66.6
CNS(=O)(=O)c1ccc(Oc2ccc(C(F)(F)F)cc2)c(-c2nc3ccccc3o2)c1 [1-29, 3-(1,3-benzoxazol-2-yl)-N-methyl-4-[4-(trifluoromethyl)phenoxy]benzene-1-sulfonamide] | 861
CNS(=O)(=O)c1ccc(Oc2ccc(C(F)(F)F)cc2)c(-c2cn3ccc(C(=O)OC)cc3n2)c1 [1-30, methyl 2-{5-(methylsulfamoyl)-2-[4-(trifluoromethyl)phenoxy]phenyl} imidazo[1,2-a]pyridine-7-carboxylate] | 7800
CNS(=O)(=O)c1ccc(Oc2ccc(C(F)(F)F)cc2)c(-c2cn3ccc(C)cc3n2)c1 [1-31, N-methyl-3-(7-methylimidazo[1,2-a]pyridin-2-yl)-4-[4-(trifluoromethyl)phenoxy]benzene-1-sulfonamide] | 40.6
CNS(=O)(=O)c1ccc(Oc2ccc(C(F)(F)F)cc2)c(-c2cn3ccc(F)cc3n2)c1 [1-32, 3-(7-fluoroimidazo[1,2-a]pyridin-2-yl)-N-methyl-4-[4-(trifluoromethyl)phenoxy]benzene-1-sulfonamide] | 62.4
CNS(=O)(=O)c1ccc(Oc2ccc(C(F)(F)F)cc2)c(-c2cn3cccc(C)c3n2)c1 [1-33, N-methyl-3-(8-methylimidazo[1,2-a]pyridin-2-yl)-4-[4-(trifluoromethyl)phenoxy]benzene-1-sulfonamide] | 236
CNS(=O)(=O)c1ccc(Oc2ccc(C(F)(F)F)cc2)c(-c2cc3ccccn3n2)c1 [1-35, N-methyl-3-(pyrazolo[1,5-a]pyridin-2-y1)-4-[4-(trifluoromethyl)phenoxy]benzene-1-sulfonamide] | 99.4
CNS(=O)(=O)c1ccc(Oc2ccc(C(F)(F)F)cc2)c(-c2ccc3cc(OC)nnc3c2)c1 [2-2, 3-(3-Methoxycinnolin-7-yl)-N-methyl-4-[4-(trifluoromethyl)phenoxy]benzene-1-sulfonamide] | 50.5
CNS(=O)(=O)c1ccc(Oc2ccc(C(F)(F)F)cc2)c(-c2ccc(OC)c3nc(C(F)(F)F)[nH]c23)c1 [2-3, 3-[4-methoxy-2-(trifluoromethyl)-1H-benzimidazol-7-yl]-N-methyl-4-[4-(trifluoromethyl)phenoxy]benzene-1-sulfonamide] | 4920
CNS(=O)(=O)c1ccc(Oc2ccc(C(F)(F)F)cc2)c(-c2ccc3c(c2)CC(=O)N3)c1 [2-4, N-methyl-3-(2-oxo-2,3-dihydro-1H-indol-5-yl)-4-[4-(trifluoromethyl)phenoxy]benzene-1-sulfonamide] | 5480
CNS(=O)(=O)c1ccc(Oc2ccc(C(F)(F)F)cc2)c(-c2ccc3[nH]c(=O)[nH]c3c2)c1 [2-5, N-methyl-3-(2-oxo-2,3-dihydro-1H-benzimidazol-5-yl)-4-[4-(trifluoromethyl)phenoxy]benzene-1-sulfonamide] | 4540
CNS(=O)(=O)c1ccc(Oc2ccc(C(F)(F)F)cc2)c(-c2ccc3scnc3c2)c1 [2-6, 3-(1,3-benzothiazol-5-yl)-N-methyl-4-[4-(trifluoromethyl)phenoxy]benzene-1-sulfonamide] | 210
CNS(=O)(=O)c1ccc(Oc2ccc(C(F)(F)F)cc2)c(-c2cccc3cc[nH]c23)c1 [2-7, 3-(1H-indol-7-yl)-N-methyl-4-[4-(trifluoromethyl)phenoxy]benzene-1-sulfonamide] | 5620
CNS(=O)(=O)c1ccc(Oc2ccc(C(F)(F)F)cc2)c(-c2ccc3c(c2)n(C)c(=O)n3C)c1 [2-8, 3-(1,3-dimethyl-2-oxo-2,3-dihydro-1H-benzimidazol-5-yl)-N-methyl-4-[4-(trifluoromethyl)phenoxy]benzene-1-sulfonamide] | 198

Next, values leading:

EC50 [nM] | Compound
3340 | CNS(=O)(=O)c1ccc(Oc2ccc(C(F)(F)F)cc2)c(-c2cnc3ccc(Cl)nn23)c1 [1-23, 3-(6-chloroimidazo[1,2-b]pyridazin-3-yl)-N-methyl-4-[4-(trifluoromethyl)phenoxy]benzene-1-sulfonamide]
335 | CNS(=O)(=O)c1ccc(Oc2ccc(C(F)(F)F)cc2)c(-c2cnc3ncccn23)c1 [1-26, 3-(imidazo[1,2-a]pyrimidin-3-yl)-N-methyl-4-[4-(trifluoromethyl)phenoxy]benzene-1-sulfonamide]
88.5 | CNS(=O)(=O)c1ccc(Oc2ccc(C(F)(F)F)cc2)c(-c2cn3cc(C)ccc3n2)c1 [1-34, N-methyl-3-(6-methylimidazo[1,2-a]pyridin-2-yl)-4-[4-(trifluoromethyl)phenoxy]benzene-1-sulfonamide]
4.6 | CNS(=O)(=O)c1ccc(Oc2ccc(C(F)(F)F)cc2)c(-c2cc3n(n2)CCCC3)c1 [1-36, N-methyl-3-(4,5,6,7-tetrahydropyrazolo[1,5-a]pyridin-2-yl)-4-[4-(trifluoromethyl)phenoxy]benzene-1-sulfonamide]
414 | CNS(=O)(=O)c1ccc(Oc2ccc(C(F)(F)F)cc2)c(-c2ncn3c2CCCC3)c1 [1-37, N-methyl-3-(5,6,7,8-tetrahydroimidazo[1,5-a]pyridin-1-yl)-4-[4-(trifluoromethyl)phenoxy]benzene-1-sulfonamide]
27 | CNS(=O)(=O)c1ccc(Oc2ccc(C(F)F)cc2)c(-c2cn3c(n2)CCC3)c1 [1-40, 4-[4-(difluoromethyl)phenoxy]-3-(6,7-dihydro-5H-pyrrolo[1,2-a]imidazol-2-yl)-N-methylbenzene-1-sulfonamide]
64.4 | CNS(=O)(=O)c1ccc(Oc2ccc(C(F)(F)F)cc2)c(-c2cc3n(n2)CCN3)c1 [1-45, 3-(2,3-dihydro-1H-imidazo[1,2-b]pyrazol-6-yl)-N-methyl-4-[4-(trifluoromethyl)phenoxy]benzene-1-sulfonamide]
1860 | CNS(=O)(=O)c1ccc(Oc2ccc(F)cc2)c(-c2cnn3c2OCC3)c1 [1-46, 3-(2,3-dihydropyrazolo[5,1-b]oxazol-7-yl)-4-(4-fluorophenoxy)-N-methylbenzenesulfonamide]
104 | CNS(=O)(=O)c1ccc(Oc2ccc(Cl)cc2)c(-c2cnn3c2OCC3)c1 [1-47, 4-(4-chlorophenoxy)-3-(2,3-dihydropyrazolo[5,1-b]oxazol-7-yl)-N-methylbenzenesulfonamide]
1060 | CNS(=O)(=O)c1ccc(Oc2ccc(F)c(F)c2)c(-c2cnn3c2OCC3)c1 [1-48, 4-(3,4-difluorophenoxy)-3-(2,3-dihydropyrazolo[5,1-b]oxazol-7-yl)-N-methylbenzenesulfonamide]
315 | CNS(=O)(=O)c1ccc(Oc2cccc(C(F)(F)F)c2)c(-c2cnn3c2OCC3)c1 [1-49, 3-(2,3-dihydropyrazolo[5,1-b]oxazol-7-yl)-N-methyl-4-(3-(trifluoromethyl)phenoxy)benzenesulfonamide]
416 | CNS(=O)(=O)c1ccc(Oc2ccc(C(C)=O)cc2)c(-c2cn3c(n2)CCC3)c1 [1-50, 4-(4-acetylphenoxy)-3-(6,7-dihydro-5H-pyrrolo[1,2-a]imidazol-2-yl)-N-methylbenzene-1-sulfonamide]
26 | CNS(=O)(=O)c1ccc(Oc2ccc(C(F)(F)F)cc2)c(-c2cnn3c2OCC3)c1 [2-1, 3-(2,3-Dihydropyrazolo[5,1-b]oxazol-7-yl)-N-methyl-4-(4-(trifluoromethyl)phenoxy)benzenesulfonamide]
2180 | CNS(=O)(=O)c1ccc(Oc2ccc(C(F)(F)F)cc2)c(-c2ccnc3[nH]ccc23)c1 [2-9, N-methyl-3-(1H-pyrrolo[2,3-b]pyridin-4-yl)-4-[4-(trifluoromethyl)phenoxy]benzene-1-sulfonamide]
